Assay: DPPH radical scavenging antioxidant test
Conditions: 517 nm; for Inhibition (radical scavenging inhibition): 0.2 mL DPPH (0.75 mM), compound 3 μM in ethanol, 30 min incubation in the dark
Procedure: The antioxidant properties of the 8-((3,4-dihydroxyphenyl)diazenyl)naphthalene-1,3-disulfonic acid were studied by adding 0.2 mL DPPH (0.75 mM)) to compound 8-((3,4-dihydroxyphenyl)diazenyl)naphthalene-1,3-disulfonic acid (III) (3 μM) in ethanol. After 30 min of incubation in the dark, the absorbance was read against a blank at 517 nm. Ascorbic acid (vitamin C) was used as standard antioxidants (positive control). A blank sample was prepared by 0.2 ml of DPPH in 3 ml ethanol. A negative control sample was run using ethanol instead of the sample. The radical scavenging inhibition was calculated using the following equation: […]
The antioxidant activity for the synthesized compound is listed in Table 1, using Vitamin C as a reference.

Structure (SMILES) | Inhibition (radical scavenging inhibition) [%] | antioxidant potential compared to vitamin C (in words) (DPPH in vitro test, vitamin C as positive control)
O=C1O[C@H]([C@@H](O)CO)C(O)=C1O [vit c, Ascorbic acid, reference compound] | 74 | –
O=S(=O)(O)c1cc(S(=O)(=O)O)c2c(/N=N/c3ccc(O)c(O)c3)cccc2c1 [Product III, 8-((3,4-dihydroxyphenyl)diazenyl)naphthalene-1,3-disulfonic acid] | 54 | high potential as an antioxidant compared to vitamin C
